Assay results published in PubChem BioAssay AID977629 (Broad Institute, 2014).
Records with an inconclusive call do not appear. Active and inactive are the calls of the source.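 The calls were made as follows: active = drop in red signal of normal-ribosome bacteria at least twice that in human-like-ribosome bacteria, growth inhibited under 30%; inactive = the rest, inconclusive results apart.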

Key:
[1] = E. coli strain growth, wild-type against h24 humanized mutant – h24 mutant GFP vs wild-type RFP, cherry-pick, dose response (AID 977629); conditions: E. coli WT-RFP / h24-humanized GFP mixed culture, 24 h; at 50 µM (top of the series)
[2] = system: E. coli WT-RFP / h24-humanized GFP mixed culture, 24 h; experiment: as above
[3] = measured here: total growth OD600
[4] = measured here: h24 humanized mutant GFP signal

| Structure (SMILES) | activity change, negative = inhibition [1] | AC50 [2, 3] [µM] | AC50 [2, 4] [µM] | AC50 [2] |
| --- | --- | --- | --- | --- |
| C[C@@H]1CCCCO[C@H](CN(C)C(=O)CCCN(C)C)[C@H](C)CN([C@@H](C)CO)C(=O)c2cc(NC(=O)Nc3cccc4ccccc34)ccc2O1 | 101 (inactive) | > 100 | – | – |
| Cc1ccc(C)c(NC(=O)CSc2nc3nc(-c4cccs4)cc(C(F)(F)F)c3c(=O)[nH]2)c1 | 52.6 (inactive) | 20.1 | 31.6 | – |
| COc1ccc(-n2cc(-c3ccccc3)c3c(N4CCOCC4)ncnc32)cc1 | 12.7 (inactive) | 27.8 | – | – |
| COc1ccc2[nH]c3c(=O)n(CCCCC(=O)NCCC(C)C)c(=S)[nH]c3c2c1 | 64.3 (inactive) | – | – | – |
| CCN(CC)CCn1c2ccccc2c2nc3ccc([N+](=O)[O-])cc3cc21 | 21.8 (inactive) | 7.41 | 6.47 | – |
| Cc1noc(C)c1NC(=O)Nc1ccc2c(c1)C(=O)N([C@H](C)CO)C[C@@H](C)[C@@H](CN(C)C(=O)Nc1ccc3c(c1)OCO3)OCCCC[C@@H](C)O2 | 86.8 (inactive) | – | – | – |
| COC(=O)c1c(NC(=O)CCC(=O)O)sc(Cc2ccccc2)c1C | – | 30 | – | > 100 µM (inactive) |
| COc1ccc(Cn2c(-c3ccc(Cl)cc3)c[n+]3ccccc23)cc1 | 21 (inactive) | – | – | – |
| O=C(O)c1cc([N+](=O)[O-])ccc1NCc1ccccc1 | -0.454 (inactive) | 5.79 | > 100 | – |
